Where two headings read alike, the source gives them in different places.
Target: T1, GABA A receptor α5β3γ2 (Homo sapiens, UniProt P18507+P31644)
T1 construct: expressed in transfected cells; host or cells: HEK293 (transiently transfected for the human receptors)
Assay: [3H]flumazenil competition binding, human GABA A α5β3γ2 receptors expressed in HEK293 cells
Conditions: mean of two determinations
Method: The affinity of compounds at GABA A receptor subtypes was measured by competition for [3H]flumazenil (85 Ci/mmol; Roche) binding to HEK293 cells expressing rat (stably transfected) or human (transiently transfected) receptors of composition α1β3γ2, α2β3γ2, α3β3γ2 and α5β3γ2.
Cell pellets were suspended in Krebs-tris buffer (4.8 mM KCl, 1.2 mM CaCl2, 1.2 mM MgCl2, 120 mM NaCl, 15 mM Tris; pH 7.5; binding assay buffer), homogenized by polytron for ca. 20 sec on ice and centrifuged for 60 min at 4° C. (50000 g; Sorvall, rotor: SM24=20000 rpm). The cell pellets were resuspended in Krebs-tris buffer and homogenized by polytron for ca. 15 sec on ice. Protein was measured (Bradford method, Bio-Rad) and aliquots of 1 mL were prepared and stored at −80° C.
Radioligand binding assays were carried out in a volume of […] (96-well plates) which contained […] of cell membranes, [3H]flumazenil at a concentration of 1 nM for α1, α2, α3 subunits and 0.5 nM for α5 subunits and the test compound in the range of […]. Nonspecific binding was defined by 10^−5 M diazepam and typically represented less than 5% of the total binding. Assays were incubated to equilibrium for 1 hour at 4° C. and harvested onto GF/C uni-filters (Packard) by filtration using a Packard harvester and washing with ice-cold wash buffer (50 mM Tris; pH 7.5). After drying, filter-retained radioactivity was detected by liquid scintillation counting. Ki values were calculated using Excel-Fit (Microsoft) and are the means of two determinations.

[1] = human α5β3γ2, 0.5 nM [3H]flumazenil, read-out: Ki[μM] hα5
[2] = Table 1, human α5, [3H]flumazenil, read-out: Ki h

SMILES | Ki [1] [µM] | Ki [2] [µM]
Cc1onc(-c2ccc(F)cc2)c1C(=O)c1c[nH]c2cc(C(=O)NCC3CC3)ccc12 [Example 1, 3-[3-(4-Fluoro-phenyl)-5-methyl-isoxazole-4-carbonyl]-1H-indole-6-carboxylic acid cyclopropylmethyl-amide] | 0.00645 | 
Cc1onc(-c2ccccc2)c1C(=O)c1c[nH]c2cc(C(=O)NCC3CC3)ccc12 [Example 2, 3-(5-Methyl-3-phenyl-isoxazole-4-carbonyl)-1H-indole-6-carboxylicacidcyclopropylmethyl-amide] | 0.00545 | 0.00545
C#CCNC(=O)c1ccc2c(C(=O)c3c(-c4ccccc4)noc3C)c[nH]c2c1 [Example 3, 3-(5-Methyl-3-phenyl-isoxazole-4-carbonyl)-1H-indole-6-carboxylicacid prop-2-ynylamide] | 0.0029 | 0.0029
Cc1onc(-c2ccccc2)c1C(=O)c1c[nH]c2cc(C(=O)NCCc3cnc[nH]3)ccc12 [Example 4, 3-(5-Methyl-3-phenyl-isoxazole-4-carbonyl)-1H-indol-6-carboxylicacid [2-(1H-imidazol-4-yl)-ethyl]-amide] | 0.00265 | 0.00265
Cc1onc(-c2ccccc2)c1C(=O)c1c[nH]c2cc(C(=O)NCc3ccccn3)ccc12 [Example 5, 3-(5-Methyl-3-phenyl-isoxazole-4-carbonyl)-1H-indole-6-carboxylicacid (pyridin-2-ylmethyl)-amide] | 0.00395 | 0.00395
Cc1onc(-c2ccccc2)c1C(=O)c1c[nH]c2cc(C(=O)NCCN3CCOCC3)ccc12 [Example 6, 3-(5-Methyl-3-phenyl-isoxazole-4-carbonyl)-1H-indole-6-carboxylicacid (2-morpholin-4-yl-ethyl)-amide] | 0.0033 | 0.0033
Cc1onc(-c2ccccc2)c1C(=O)c1c[nH]c2cc(C(=O)NCc3ccco3)ccc12 [Example 7, 3-(5-Methyl-3-phenyl-isoxazole-4-carbonyl)-1H-indole-6-carboxylicacid (furan-2-ylmethyl)-amide] | 0.0053 | 0.0053
Cc1onc(-c2ccccc2)c1C(=O)c1c[nH]c2cc(C(=O)NC3CC3)ccc12 [Example 8, 3-(5-Methyl-3-phenyl-isoxazole-4-carbonyl)-1H-indole-6-carboxylicacidcyclopropylamide] | 0.003 | 0.003
Cc1onc(-c2ccccc2)c1C(=O)c1c[nH]c2cc(C(=O)NC3CCC3)ccc12 [Example 9, 3-(5-Methyl-3-phenyl-isoxazole-4-carbonyl)-1H-indole-6-carboxylicacidcyclobutylamide] | 0.00435 | 0.00435

The next lines start with the values.

Ki [1] [µM] | Ki [2] [µM] | SMILES
 | 0.0137 | Cc1onc(-c2ccccc2)c1C(=O)c1c[nH]c2cc(C(=O)NC3CCCC3)ccc12 [Example 10, 3-(5-Methyl-3-phenyl-isoxazole-4-carbonyl)-1H-indole-6-carboxylicacidcyclopentylamide]
0.00545 | 0.00545 | Cc1onc(-c2ccccc2)c1C(=O)c1c[nH]c2cc(C(=O)NC3CCOCC3)ccc12 [Example 11, 3-(5-Methyl-3-phenyl-isoxazole-4-carbonyl)-1H-indole-6-carboxylicacid (tetrahydro-pyran-4-yl)-amide]
0.0026 | 0.0026 | Cc1onc(-c2ccc(F)cc2)c1C(=O)c1c[nH]c2cc(C(=O)NCCc3cnc[nH]3)ccc12 [Example 12, 3-[3-(4-Fluoro-phenyl)-5-methyl-isoxazole-4-carbonyl]-1H-indole-6-carboxylicacid [2-(1H-imidazol-4-yl)-ethyl]-amide]
0.00565 | 0.00565 | Cc1onc(-c2ccc(F)cc2)c1C(=O)c1c[nH]c2cc(C(=O)NCc3ccccn3)ccc12 [Example 13, 3-[3-(4-Fluoro-phenyl)-5-methyl-isoxazole-4-carbonyl]-1H-indole-6-carboxylicacid (pyridin-2-ylmethyl)-amide]

From patent US7378435B2, “Aryl-isoxazole-4-carbonyl-indole-carboxylic acid amide derivatives” (Hoffmann-La Roche Inc., priority 2005, dated 2008)
